According to US9822068B2, “Inhibitors of fatty acid amide hydrolase (FAAH) enzyme with improved oral bioavailability and their use as medicaments” (THE REGENTS OF THE UNIVERSITY OF CALIFORNIA, priority 2014, dated 2017):
≈ marks a conversion by molar mass, not a printed value. Read-outs that look alike come from different tables or passages of the source.

Legend:
Rat FAAH = Rat FAAH (Rattus norvegicus (Rat), UniProt P97612); test: In vitro rat FAAH radiometric assay; assay type: biochemical; details: rat brain homogenate, 10 min pre-incubation at 37° C.; read-out: r-FAAH IC50
Sequence of Rat FAAH (P97612 whole entry): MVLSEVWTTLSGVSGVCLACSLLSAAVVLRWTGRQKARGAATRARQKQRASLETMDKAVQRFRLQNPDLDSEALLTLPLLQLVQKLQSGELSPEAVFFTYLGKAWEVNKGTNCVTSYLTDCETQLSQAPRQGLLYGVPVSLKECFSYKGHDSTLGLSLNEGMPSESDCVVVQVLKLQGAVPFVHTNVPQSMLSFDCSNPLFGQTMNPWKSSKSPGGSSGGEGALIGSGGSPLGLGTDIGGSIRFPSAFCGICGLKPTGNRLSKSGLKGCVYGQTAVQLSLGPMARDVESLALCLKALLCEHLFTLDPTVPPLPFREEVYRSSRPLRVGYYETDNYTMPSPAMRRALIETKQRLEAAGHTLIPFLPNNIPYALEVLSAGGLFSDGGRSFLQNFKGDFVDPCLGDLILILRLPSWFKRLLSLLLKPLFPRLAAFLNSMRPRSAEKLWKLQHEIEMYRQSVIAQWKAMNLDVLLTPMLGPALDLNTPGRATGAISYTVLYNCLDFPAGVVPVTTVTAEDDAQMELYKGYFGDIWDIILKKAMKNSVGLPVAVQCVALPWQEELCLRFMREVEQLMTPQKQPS
Experimental: In Vitro Rat FAAH Radiometric Assay
Rat FAAH was prepared from male Sprague Dawley rat brains, homogenized in a potter in 20 mM of Tris HCl pH 7.4, 0.32 M sucrose.
The radiometric assay used to measure FAAH activity was performed in Eppendorf tubes: 50 μg of total rat brain homogenate were pre-incubated in 445.5 μL of assay buffer (50 mM Tris-HCl pH 7.4, 0.05% Fatty acid-free-bovine serum albumin (BSA)) with 4.5 μL of inhibitor (at appropriate concentration in DMSO) or DMSO alone (to measure FAAH total activity) for 10 min at 37° C. The blank (no activity control) was prepared using 445.5 μL of assay buffer and 4.5 μL of DMSO without the 50 μg of total rat brain homogenate.
After 10 min of pre-incubation with test compounds, the reaction was started by adding of 50 μL of substrate and incubating for 30 min at 37° C. The substrate was prepared in assay buffer in order to achieve the final concentration of 1 μM arachidonoyl ethanolamide (Cayman Chemical N. 90050) and 0.6 nM anandamide [ethanolamine-1-^3H] (American Radiolabeled Chemicals Inc, ART. 0626, Conc. 1 mCi/mL, S.A. 60 Ci/mmol). The reaction was stopped by adding cold 1:1 CHCl3/MeOH. After 10 min of centrifugation (845×g at 4° C.) 600 μL of aqueous phase were transferred into scintillation vials previously filled with 3 mL of scintillation fluid (Ultima Gold™, Perkin Elmer Inc., Cat. 6013329). Radioactivity was measured by liquid scintillation counting (MicroBeta2 LumiJET Perkin Elmer Inc.).
(§1) Concentrations causing half-maximal inhibition of FAAH, IC50 values, were determined by non-linear regression analysis of the Log [concentration]/response curves generated with mean replicate values using a four parameter Hill equation curve fitting with GraphPad Prism 5 (GraphPad Software Inc., CA—USA).

human FAAH-1 = human FAAH-1 (Homo sapiens (Human), UniProt O00519); test: In vitro human FAAH fluorescent assay; assay type: biochemical; details: human FAAH-1 membrane preparation from HEK-293, 50 min pre-incubation at 37° C.; read-out: h-FAAH IC50
Sequence of human FAAH-1 (O00519 whole entry): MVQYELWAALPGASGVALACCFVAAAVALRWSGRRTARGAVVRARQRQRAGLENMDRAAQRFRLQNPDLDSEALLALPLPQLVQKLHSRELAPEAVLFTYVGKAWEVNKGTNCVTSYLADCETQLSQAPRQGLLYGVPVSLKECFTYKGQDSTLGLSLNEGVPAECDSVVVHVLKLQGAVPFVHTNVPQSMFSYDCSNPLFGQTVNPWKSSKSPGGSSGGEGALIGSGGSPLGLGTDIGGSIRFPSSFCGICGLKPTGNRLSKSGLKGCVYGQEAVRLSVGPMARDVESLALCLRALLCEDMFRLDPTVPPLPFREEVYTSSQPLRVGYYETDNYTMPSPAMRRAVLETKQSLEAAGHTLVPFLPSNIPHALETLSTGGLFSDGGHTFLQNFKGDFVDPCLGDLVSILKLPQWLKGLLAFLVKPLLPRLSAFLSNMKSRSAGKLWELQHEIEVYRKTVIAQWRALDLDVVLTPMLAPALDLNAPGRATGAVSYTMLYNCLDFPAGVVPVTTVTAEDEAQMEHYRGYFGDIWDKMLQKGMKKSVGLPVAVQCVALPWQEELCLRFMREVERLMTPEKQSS
Experimental: In Vitro Human FAAH Fluorescent Assay
Human recombinant FAAH was obtained from a HEK-293 cell line stably overexpressing human FAAH-1 enzyme. Cells were grown in Dulbecco's Modified Eagle Medium (DMEM) medium containing 10% FBS, 1% pen/strep, 1% glutamine and 500 μg/mL G418. To obtain membrane preparation cells were scraped off with cold PBS and collected by centrifugation (500×g, 10 min, 4° C.); the cell pellet was re-suspended in 20 mM Tris-HCl pH 7.4, 0.32M sucrose, disrupted by sonication (10 pulses, 5 times) and centrifuged (800×g, 15 min, 4° C.); the collected supernatant was centrifuged at 105,000×g for 1 h at 4° C. and the pellet was re-suspended in PBS.
The fluorescent assay to measure FAAH activity was performed in 96 wells black plates: 2.5 μg of human FAAH-1 membrane preparation were pre-incubated for 50 min at 37° C., in 180 µL of assay buffer (50 mM TrisHCl pH 7.4, 0.05% Fatty acid-free-BSA) with 10 μL of inhibitor (at appropriate concentration in DMSO) or 10 μL DMSO to measure FAAH total activity. The background (no activity) samples were prepared using 180 μL of assay buffer without human FAAH-1 and 10 μL of DMSO. The reaction was then started by the addition of 10 μL of a 40 μM substrate solution (N. 10005098, Cayman Chemical) dissolved in ethanol, and used at a final concentration of 2 μM. The reaction was carried out for 30 min at 37° C. and fluorescence was measured with a Tecan Infinite M200 nanoquant plate reader (excitation wavelength 350 nm/emission wavelength 460 nm).
as §1

[1] = Aqueous kinetic solubility assay; assay type: physicochemical; details: phosphate buffered saline, aqueous buffer, kinetic from dmso stock, PBS pH 7.4, target 250 μM, 2.5% DMSO, 25° C.
Experimental: Aqueous Kinetic Solubility Assay
The aqueous kinetic solubility was determined from a 10 mM DMSO stock solution of test compound in Phosphate Buffered Saline (PBS) at pH 7.4.
The study was performed by incubation of an aliquot of 10 mM DMSO stock solution in PBS (pH 7.4) at a target concentration of 250 μM resulting in a final concentration of 2.5% DMSO. The incubation was carried out under shaking at 25° C. for 24 h followed by centrifugation. The supernatant was analyzed by UPLC/MS for the quantification of dissolved compound by UV at a specific wavelength (215 nm).
The aqueous kinetic solubility (in μM) was calculated by dividing the peak area of the supernatant by the peak area of the test compound reference and further multiplied by the concentration of the test compound reference and dilution factor.
The UPLC/MS analyses were performed on a Waters ACQUITY UPLC/MS system consisting of a SQD (Single Quadrupole Detector) Mass Spectrometer equipped with an Electrospray Ionization interface and a Photodiode Array Detector. The PDA range was 210-400 nm. The analyses were run on an ACQUITY UPLC BEH C18 column (50×2.1 mmID, particle size 1.7 m) with a VanGuard BEH C18 pre-column (5×2.1 mmID, particle size 1.7 μm). The mobile phase was 10 mM NH4OAc in H2O at pH 5 adjusted with AcOH (A) and 10 mM NH4OAc in MeCN—H2O (95:5) at pH 5 (B). Electrospray ionization in positive and negative mode was applied in the mass scan range 100-500 Da.

[2] = Pharmacokinetic experiment in cannulated Sprague-Dawley rats (PO and IV); assay type: in vivo; details: plasma, rat; for bioavailability: PO 10 mg/kg vs IV 3 mg/kg, read-out: Oral bioavailability (F %)
Experimental: Pharmacokinetic Experiment and Analysis
Compounds were administered orally (PO) and intravenously (IV) to cannulated Sprague-Dawley rats at 10 and 3 mg/kg, respectively. Vehicle was: PEG400/Tween 80/Saline solution at 10/10/80 (% in volume), respectively. Three animals per dose were treated. Blood samples at 0, 15, 30, 60, 120, 240, 480 and 1440 min after administration were collected for PO arm. Blood samples at 0, 5, 15, 30, 60, 120 and 240 min after administration were collected for IV arm. Plasma was separated from blood by centrifugation for 15 min at 3500 rpm a 4° C., collected in a Eppendorf tube and frozen (−80° C.). Control animals treated with vehicle only were also included in the experimental protocol.
Preparation of Samples, Standard Curve and QC Samples for UPLC-MS Analysis
Samples were thawed in an ice bath and after a short centrifugation transferred (50 μL) into a 96-deepwell plate and added with 150 μL of acetonitrile spiked with 200 nM Warfarin (the Internal Standard, I.S.). After agitation (3 min) the plate was centrifuged at 3000 g for 10 min at 4° C. 80 μL of supernatant was then transferred in a 96-well plate and added with 80 μL of water. Standard compound was spiked in neat solvent (PBS pH 7.4 added with 10% acetonitrile) to prepare a calibration curve over the 1 nM-10 μM range. Three quality controls (QCs) samples were also prepared spiking the compound in blank rat plasma to final 20, 200 and 2000 nM concentrations. Calibrators and QCs were crashed with acetonitrile spiked with the I.S. as described for the plasma samples. Dosing solutions, previously diluted 2000 fold in the neat solvent were also included in the samples and tested.
Compounds plasma levels were monitored on a Xevo TQ UPLC-MS/MS system (Waters, Milford USA), using the calibration curve and the internal standard (Warfarin). Chromatography was carried out on a Acquity BEH C18 column (2.1×50 mmID, 1.7 m particle size, Waters, Milford USA). Flow rate was 0.5 mL/min. The mobile phase was (A) H2O/0.1% formic acid; (B) MeCN/0.1% formic acid. A linear gradient was applied from 5 to 100% B in 2 min. 3 μL of each sample were loaded on column. MS parameters and multiple reaction monitoring (MRM) transitions were carefully tuned for each compound. Plasma levels data were analyzed using PKSolutions excel application (Summit Research Service, USA) to derive the most important pharmacokinetic parameters.
The oral bioavailability (F %) data, and the Area Under the Curve (AUC) data (ng×min/mL) corresponding to the IV (3 mg/kg) and PO (10 mg/kg) dose of selected compounds described in the Examples are reported in Table 3. Their F % data are in the range from 35 to 87.

[3] = IV, 3 mg/kg, read-out: AUC IV (3 mg/kg) (converted)
[4] = PO, 10 mg/kg, read-out: AUC PO (10 mg/kg) (converted)

SMILES	IC50 (Rat FAAH)	IC50 (human FAAH-1)	solubility kinetic at 24 h [1]	bioavailability [2]	AUC [2, 3]	AUC [2, 4]
NC(=O)c1cccc(-c2cc(OC(=O)NC3CCCCC3)ccc2OC(F)F)c1 [Example 8, [3-(3-carbamoylphenyl)-4-(difluoromethoxy)phenyl] N-cyclohexylcarbamate]	1.4 nM	8.2 nM	44 µM (≈ 17.8 µg/mL)	35%	2110 ng·h/mL	2430 ng·h/mL
CNC(=O)c1cccc(-c2cc(OC(=O)NC3CCCCC3)ccc2OC(F)F)c1 [Example 9, [4-(difluoromethoxy)-3-[3-(methylcarbamoyl)phenyl]phenyl] N-cyclohexyl carbamate]	3.5 nM	12 nM	8 µM (≈ 3.35 µg/mL)	53%	1390 ng·h/mL	2480 ng·h/mL
